The results in this text go back to ChEMBL document CHEMBL1201862, “PubChem BioAssay data set” (2004).

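96-well plates; 48 h exposure; 5 concentrations. Endpoints by linear interpolation between flanking doses. Not reached: highest tested concentration assigned. The concentration for 50% growth inhibition is given as GI50.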 Activity calls are given as the source filed them. No stated cut-off is given here; in the data, active = GI50 up to about 1.1 µM and inactive = higher.

Test systems include A549; UACC-62; HOP-92; HCC 2998; IGROV-1; COLO 205; SW-620; MOLT-4; CAKI-1; EKVX; OVCAR-5; MDA-MB-435; SK-MEL-2; SF-268; A498; NCI-H23; ACHN; PC-3; NCI/ADR-RES; OVCAR-3.
Common to all, as to experiment: DTP human tumour cell line panel, 48 h

For orientation: GI50 means the concentration that inhibits growth by half. Consider `COc1ccc2c(c1)-c1c(c3ccccc3n1CCN1CCCCC1)CC2`, for which the GI50 in the assay with A549 was 10.6 µM (inactive); in the assay with UACC-62 it was 16.3 µM (inactive); in the assay on HOP-92, 21.8 µM (inactive); in the assay on HCC 2998, 6.87 µM (inactive); with IGROV-1, 13.8 µM (inactive); in the assay with COLO 205 it was 13.2 µM (inactive). Further, the GI50 in the assay on SW-620 was 26.1 µM (inactive); in the assay on MOLT-4 it was 15.9 µM (inactive); in the assay on CAKI-1, 21.6 µM (inactive); in the assay with EKVX, 26.8 µM (inactive); with OVCAR-5, 11.9 µM (inactive); in the assay with MDA-MB-435 it was 24.9 µM (inactive). Besides, the GI50 is 5.73 µM (inactive) with SK-MEL-2; 17.4 µM (inactive) with SF-268; 34 µM (inactive) in the assay on A498; 18.3 µM (inactive) with NCI-H23; 33.7 µM (inactive) in the assay on ACHN; 5.75 µM (inactive) in the assay on PC-3. Besides, the figures for the GI50 in the assay on NCI/ADR-RES and in the assay on OVCAR-3 were 6.25 µM (inactive) and 6.08 µM (inactive), respectively.

Regarding `CC(C)OC(=O)c1ccc(CCC2=CC(=O)C=CC2=O)cc1`, the GI50 with A549 is 25.4 µM (inactive); in the assay on UACC-62 it was 14.9 µM (inactive); with HOP-92, 5.05 µM (inactive); with HCC 2998 it was 16.8 µM (inactive); with IGROV-1 it was 13.9 µM (inactive); in the assay with COLO 205, 8.85 µM (inactive). The GI50 was 4.69 µM (inactive) in the assay on SW-620; 2.1 µM (inactive) in the assay on MOLT-4; 1.98 µM (inactive) with CAKI-1; 11.5 µM (inactive) in the assay on EKVX; 18 µM (inactive) in the assay with OVCAR-5; 17.4 µM (inactive) in the assay on MDA-MB-435. The GI50 with SK-MEL-2 is 19.1 µM (inactive); in the assay with SF-268 it was 13.7 µM (inactive); with A498, 23 µM (inactive); with NCI-H23 it was 13.2 µM (inactive); with ACHN it was 7.89 µM (inactive); in the assay with PC-3 it was 12 µM (inactive). Besides, the figures for the GI50 in the assay with NCI/ADR-RES and in the assay with OVCAR-3 were 7.78 µM (inactive) and 5.18 µM (inactive), respectively.

`CC(CCC(=O)O)(c1cc(Br)c(O)c(Br)c1)c1cc(Br)c(O)c(Br)c1`: the GI50 is > 100 µM (inactive) in the assay with A549; 41 µM (inactive) in the assay on UACC-62; > 100 µM (inactive) in the assay on HOP-92; 30.1 µM (inactive) in the assay with HCC 2998; 88.3 µM (inactive) with IGROV-1; > 100 µM (inactive) in the assay on COLO 205. For the same compound, the GI50 in the assay with SW-620 was 84.3 µM (inactive); in the assay with MOLT-4, 48.3 µM (inactive); in the assay with CAKI-1, > 100 µM (inactive); in the assay with EKVX, > 100 µM (inactive); in the assay with OVCAR-5, > 100 µM (inactive); in the assay with MDA-MB-435 it was 65.8 µM (inactive). For the same compound, the GI50 was 52.4 µM (inactive) in the assay with SK-MEL-2; 59.7 µM (inactive) with SF-268; 30.5 µM (inactive) in the assay with A498; 47.4 µM (inactive) in the assay with NCI-H23; 87.1 µM (inactive) with ACHN; 54.7 µM (inactive) in the assay on PC-3. Further, the GI50 in the assay with NCI/ADR-RES is 83.8 µM (inactive); with OVCAR-3, 60.3 µM (inactive).

With `NCCNc1nc(N2CCCC2)c2nc(Cl)c(NCc3ccccc3)nc2n1`, the GI50 in the assay with A549 was 1.71 µM (inactive); with UACC-62, 1.75 µM (inactive); in the assay on HOP-92, 1.78 µM (inactive); with HCC 2998, 1.51 µM (inactive); in the assay with IGROV-1, 1.66 µM (inactive); with COLO 205, 1.69 µM (inactive). Besides, the GI50 with SW-620 was 2.04 µM (inactive); in the assay with MOLT-4, 2.13 µM (inactive); in the assay with CAKI-1, 5.27 µM (inactive); in the assay on EKVX, 1.73 µM (inactive); in the assay with OVCAR-5, 2.44 µM (inactive); in the assay on MDA-MB-435, 1.69 µM (inactive). The GI50 in the assay on SK-MEL-2 is 1.79 µM (inactive); in the assay with SF-268, 1.96 µM (inactive); in the assay with A498 it was 1.83 µM (inactive); with NCI-H23, 2.14 µM (inactive); in the assay on ACHN, 1.95 µM (inactive); in the assay with PC-3, 2.5 µM (inactive). In addition, the GI50 with NCI/ADR-RES is 13.6 µM (inactive); in the assay on OVCAR-3, 1.68 µM (inactive).

Regarding `O=[N+]([O-])/C(C(Cl)=C(Cl)Cl)=C(/Cl)SCc1ccccc1`, the GI50 is 16.3 µM (inactive) in the assay on A549; 3.94 µM (inactive) with UACC-62; 4.33 µM (inactive) in the assay with HOP-92; 24.8 µM (inactive) with HCC 2998; 20.7 µM (inactive) in the assay with IGROV-1; 1.74 µM (inactive) with COLO 205. For the same compound, the GI50 in the assay with SW-620 is 2.18 µM (inactive); in the assay on MOLT-4, 0.393 µM (active); with CAKI-1, 3.18 µM (inactive); in the assay on EKVX it was 20.4 µM (inactive); in the assay on OVCAR-5 it was 5.09 µM (inactive); in the assay on MDA-MB-435, 2.35 µM (inactive). For the same compound, the GI50 with SK-MEL-2 was 22.1 µM (inactive); in the assay on SF-268 it was 12.4 µM (inactive); in the assay on A498, 24.3 µM (inactive); with NCI-H23, 6.03 µM (inactive); with ACHN, 2.89 µM (inactive); in the assay on PC-3, 16 µM (inactive). In addition, the values for the GI50 with NCI/ADR-RES and in the assay on OVCAR-3 were 1.85 µM (inactive) and 3.66 µM (inactive), respectively.

Consider `CC[N+]1(C)CCC(O)(/C=C/c2ccc(OC)cc2)C(C(=O)/C=C/c2ccc(OC)cc2)C1` (stereo not given), for which the GI50 is 23.3 µM (inactive) with A549; 17.8 µM (inactive) in the assay on UACC-62; 15.5 µM (inactive) in the assay with HOP-92; 20 µM (inactive) in the assay on HCC 2998; 21.8 µM (inactive) in the assay with IGROV-1; 2.58 µM (inactive) in the assay on COLO 205. In addition, the GI50 in the assay on SW-620 is 2.7 µM (inactive); with MOLT-4 it was 1.94 µM (inactive); with CAKI-1, 1.88 µM (inactive); in the assay on EKVX, 28.6 µM (inactive); with OVCAR-5 it was 21.2 µM (inactive); with MDA-MB-435, 12.5 µM (inactive). In addition, the GI50 is 19 µM (inactive) in the assay with SK-MEL-2; 10.6 µM (inactive) with SF-268; 16.7 µM (inactive) in the assay with A498; 16.2 µM (inactive) with NCI-H23; 8.36 µM (inactive) in the assay with ACHN; 20.1 µM (inactive) in the assay on PC-3. For the same compound, the GI50 in the assay with NCI/ADR-RES was 27.1 µM (inactive); with OVCAR-3 it was 19.7 µM (inactive).

On to `CC1=C(C(=O)OCCO[N+](=O)[O-])C(c2ccccc2[N+](=O)[O-])C(C(=O)OC(C)C)=C(C)N1` (stereo not given), for which the GI50 in the assay on A549 was 16.3 µM (inactive); in the assay on UACC-62 it was 14.1 µM (inactive); in the assay on HOP-92, 14.5 µM (inactive); in the assay with HCC 2998, 16 µM (inactive); in the assay on IGROV-1, 15.6 µM (inactive); in the assay with COLO 205, 15.1 µM (inactive). Besides, the GI50 is 19.2 µM (inactive) with SW-620; 40.9 µM (inactive) with MOLT-4; 17 µM (inactive) in the assay with CAKI-1; 18.3 µM (inactive) in the assay with EKVX; 14.9 µM (inactive) with OVCAR-5; 15 µM (inactive) in the assay with MDA-MB-435. Further, the GI50 is 15.6 µM (inactive) in the assay with SK-MEL-2; 20.4 µM (inactive) in the assay with SF-268; 20.7 µM (inactive) in the assay with A498; 20.7 µM (inactive) in the assay with NCI-H23; 13.1 µM (inactive) in the assay on ACHN; 8.17 µM (inactive) in the assay with PC-3. Also, the GI50 in the assay on NCI/ADR-RES is 16.8 µM (inactive); in the assay on OVCAR-3, 13 µM (inactive).
